In patent US4738968A, “1,8-naphthyridine derivatives useful as anti-bacterial agents” (Dainippon Pharmaceutical Co., Ltd., priority 1985, dated 1988) one finds ED50, MIC and solubility data, which are given here for nine molecules.

Converted amounts (≈) assume the structure as drawn.

As a reminder, the ED50 is the dose at which the effect has come halfway, by size or by number of responders. A word on the solubility: it is the concentration that dissolves in the medium under given conditions. Read a low solubility as a poorly soluble substance.

Series [1] deals with Staphylococcus aureus 50774. Briefly: In vivo efficacy against systemic infection in mice, S. aureus 50774. More on the design: species or system mice (ddY-S). The note with it: Staphylococcus aureus, 50774, 336 h, iv infection 5×10^8 cells, drug iv twice, immediately and 6 hours after infection, 14 days observation, calculated for free base, read-out: median effective dose (ED50). How it is done:
(§1) Compounds were each dissolved in deionized water. Each of the solutions was intravenously (iv) administered to mice infected by each of the test organisms under the conditions shown hereinbelow, and the median effective dose (ED50) was calculated by probit analysis. The numerals in the table show ED50 (mg/kg) value, caluclated for free base. Experimental conditions: Mice: Male mice (ddY-S) weighing about 20 g Infection: Staphylococcus aureus 50774 Intravenous infection with 5×10^8 cells per mouse suspended in saline. Medication: Twice, immediately and 6 hours after infection. Observation: For 14 days in the case of Staphylococcus aureus 50774. For 7 days in the case of Streptococcus pyogenes […].

In series [2] the test system is Streptococcus pyogenes A65. Briefly: In vivo efficacy against systemic infection in mice, S. pyogenes A65. More on the design: species or system mice (ddY-S). The note with it: A65, 168 h, intraperitoneal infection 3×10^7 cells, drug iv twice, immediately and 6 hours after infection, 7 days observation, calculated for free base, read-out: median effective dose (ED50). How it is done:
as §1, with “Streptococcus pyogenes […] Intraperitoneal” for “Staphylococcus aureus 50774 Intravenous”, “3×10^7” for “5×10^8”, “brain heart infusion broth.” for “saline.”

The test system of another series is E. coli P-5101. Briefly: In vitro antibacterial activity, twofold agar-dilution MIC. The note with it: Escherichia coli, P5101; E. coli P-5101, Gram -; calculated for free base; 20-hour incubation at 37° C; read-out: minimum inhibitory concentration (MIC). It is filed as cell-based. How it is done:
(§2) The antibacterial activity in vitro is show in Table 1. The numbers in the table show minimum inhibitory concentrations (MIC) (μg/ml), calculated for free base. The minimum inhibitory concentration was determined by the twofold agar-dilution method, which was recommended by Japan Society of Chemotherapy (Chemotherapy, 29(1), 76(1981)), using Muller-Hinton agar. One loopful of an overnight culture of test organisms in Mueller-Hinton broth was inoculated onto 10-ml drug-containing agar layers in petri dishes. Bacterial inocula contained approximately 10^6 colonyl-formingunits. Bacterial growth was observed after 20-hour incubation at 37° C. The MIC was defined as the lowest drug concentration which prevented visible bacterial growth.

The next series relates to P. rettgeri IFO 3850. The series is described as above. It is filed as cell-based. The note with it: Providencia rettgeri, IFO3850; P. rettgeri IFO 3850, Gram -; calculated for free base; 20-hour incubation at 37° C; read-out: minimum inhibitory concentration (MIC). How it is done: as §2
For another series, the system named is E. coli P-51208. Described as above. The class given is cell-based. The note with it: Escherichia coli, P51208; E. coli P-51208, Gram -; calculated for free base; 20-hour incubation at 37° C; read-out: minimum inhibitory concentration (MIC). On the procedure:
as §2

The next series concerns S. pyogenes A65. The description is as above. The note with it: Streptococcus pyogenes; S. pyogenes A65, Gram +; calculated for free base; 20-hour incubation at 37° C; read-out: minimum inhibitory concentration (MIC). It is filed as cell-based. On the procedure:
as §2

The next series concerns S. aureus 80. Described as above. The note with it: Staphylococcus aureus; S. aureus 80, Gram +; calculated for free base; 20-hour incubation at 37° C; read-out: minimum inhibitory concentration (MIC). The class given is cell-based. On the procedure: as §2
The next series relates to S. aureus Smith. The series is described as above. It is filed as cell-based. The note with it: Staphylococcus aureus, Gram +, calculated for free base, 20-hour incubation at 37° C, read-out: minimum inhibitory concentration (MIC). How it is done:
as §2

In the next series the test system is K. pneumoniae 13. The series is described as above. It is filed as cell-based. The note with it: Klebsiella pneumoniae; K. pneumoniae 13, Gram -; calculated for free base; 20-hour incubation at 37° C; read-out: minimum inhibitory concentration (MIC). On the procedure: as §2
Another series concerns E. coli P-51209. The description is as above. It is filed as cell-based. The note with it: Escherichia coli, P51209; E. coli P-51209, Gram -; calculated for free base; 20-hour incubation at 37° C; read-out: minimum inhibitory concentration (MIC). On the procedure:
as §2

Another series deals with M. lacunata P-7102. Described as above. It is filed as cell-based. The note with it: M. lacunata P-7102, Gram -; calculated for free base; 20-hour incubation at 37° C; read-out: minimum inhibitory concentration (MIC). How it is done: as §2
Another series deals with S. aureus 50774. Described as above. The class given is cell-based. The note with it: Staphylococcus aureus; S. aureus 50774, Gram +; calculated for free base; 20-hour incubation at 37° C; read-out: minimum inhibitory concentration (MIC). On the procedure: as §2
The test system of the next series is S. epidermidis 8. The description is as above. It is filed as cell-based. The note with it: Staphylococcus epidermidis; S. epidermidis 8, Gram +; calculated for free base; 20-hour incubation at 37° C; read-out: minimum inhibitory concentration (MIC). On the procedure:
as §2

The next series is described as follows: Solubility in water. It is filed as physicochemical. The note with it: distilled water, 25° C overnight. On the procedure: The sample was added to distilled water (10 ml) and the solution was shaken in the supersaturated state for 30 minutes. After incubation at 25° C. overnight, the solution was filtered with a microfilter. The filtrate was diluted with 0.1 N hydrochloric acid. The absorbance at 270 nm of the solution was measured and the concentration (μg/ml) of the sample was calculated from a calibration curve separately prepared.

Take `Cl.NC[C@@H]1CN(c2nc3c(cc2F)c(=O)c(C(=O)O)cn3C2CC2)C[C@@H]1F` (relative stereo) [Compound No. 1-cis.HCl, 7-(cis-3-aminomethyl-4-fluoro-1-pyrrolidinyl)-1-cyclopropyl-6-fluoro-1,4-dihydro-4-oxo-1,8-naphthyridine-3-carboxylic acid hydrochloride]: the results for the ED50 in series [1] and in series [2] were 0.274 mg/kg and 0.365 mg/kg, respectively. The MIC is 0.0125 mg/L with E. coli P-5101; 0.05 mg/L with P. rettgeri IFO 3850; 0.78 mg/L in the series on E. coli P-51208; 0.0125 mg/L with S. pyogenes A65; 0.025 mg/L with S. aureus 80; 0.025 mg/L with S. aureus Smith. Also, the MIC in the series on K. pneumoniae 13 was 0.05 mg/L; in the series on E. coli P-51209, 0.78 mg/L; in the series on M. lacunata P-7102 it was 6.25 mg/L; in the series with S. aureus 50774 it was 0.025 mg/L; in the series with S. epidermidis 8 it was 0.0125 mg/L.
With `Cl.NCC1CCN(c2nc3c(cc2F)c(=O)c(C(=O)O)cn3C2CC2)C1` (stereo not drawn) [Compound B, 7-(3-aminomethyl-1-pyrrolidinyl)-1-cyclopropyl-6-fluoro-1,4-dihydro-4-oxo-1,8-naphthyridine-3-carboxylic acid hydrochloride, reference compound], the ED50 in series [1] was 0.701 mg/kg; in series [2] it was 0.601 mg/kg. The MIC in the series with E. coli P-5101 is 0.025 mg/L; with P. rettgeri IFO 3850 it was 0.1 mg/L; in the series on E. coli P-51208, 3.13 mg/L; with S. pyogenes A65, 0.05 mg/L; with S. aureus 80, 0.05 mg/L; with S. aureus Smith, 0.05 mg/L. For the same molecule, the MIC with K. pneumoniae 13 is 0.1 mg/L; in the series on E. coli P-51209, 3.13 mg/L; in the series with M. lacunata P-7102, 12.5 mg/L; in the series on S. aureus 50774, 0.025 mg/L; in the series with S. epidermidis 8, 0.025 mg/L.
For `Cl.NC[C@@H]1CN(c2nc3c(cc2F)c(=O)c(C(=O)O)cn3C2CC2)C[C@H]1F` (relative stereo) [Compound No. 1-trans.HCl, 7-(trans-3-aminomethyl-4-fluoro-1-pyrrolidinyl)-1-cyclopropyl-6-fluoro-1,4-dihydro-4-oxo-1,8-naphthyridine-3carboxylic acid hydrochloride], the MIC in the series with E. coli P-5101 is 0.0063 mg/L; in the series on P. rettgeri IFO 3850, 0.05 mg/L; in the series with E. coli P-51208, 0.78 mg/L; in the series on S. pyogenes A65 it was 0.025 mg/L; in the series on S. aureus 80, 0.025 mg/L; with S. aureus Smith it was 0.025 mg/L. Besides, the MIC in the series with K. pneumoniae 13 is 0.05 mg/L; with E. coli P-51209 it was 0.78 mg/L; with M. lacunata P-7102 it was 3.13 mg/L; in the series on S. aureus 50774, 0.025 mg/L; with S. epidermidis 8, 0.0125 mg/L.
In the case of `NC[C@@H]1CN(c2nc3c(cc2F)c(=O)c(C(=O)O)cn3C2CC2)C[C@@H]1F` (relative stereo) [Compound No. 1-cis, 7-(cis-3-aminomethyl-4-fluoro-1-pyrrolidinyl)-1-cyclopropyl-6-fluoro-1,4-dihydro-4-oxo-1,8-naphthyridine-3-carboxylic acid], the solubility in “Solubility in water” worked out at 0.927 mg/mL (≈ 2540 µM).
Regarding `CNC[C@@H]1CN(c2nc3c(cc2F)c(=O)c(C(=O)O)cn3C2CC2)C[C@@H]1F` (relative stereo) [3-cis, 1-cyclopropyl-6-fluoro-7-(cis-4-fluoro-3-methylaminomethyl-1-pyrrolidinyl)-1,4-dihydro-4-oxo-1,8-naphthyridine-3-carboxylic acid], the concentration in solution in “Solubility in water” (solubility) was 0.789 mg/mL (≈ 2090 µM).
`Cl.NC[C@@H]1CN(c2nc3c(cc2F)c(=O)c(C(=O)O)cn3C2CC2)C[C@@H]1Cl` (relative stereo) [2-cis.HCl, 7-(cis-3-aminomethyl-4-chloro-1-pyrrolidinyl)-1-cyclopropyl6-fluoro-1,4-dihydro-4-oxo-1,8-naphthyridine-3-carboxylic acid hydrochloride]: the ED50 in series [1] is 0.355 mg/kg; in series [2], 0.235 mg/kg. For the same molecule, the MIC with E. coli P-5101 is 0.0125 mg/L; in the series on P. rettgeri IFO 3850, 0.05 mg/L; in the series on E. coli P-51208, 0.78 mg/L; in the series with S. pyogenes A65 it was 0.025 mg/L; with S. aureus 80, 0.0125 mg/L; with S. aureus Smith it was 0.025 mg/L. Also, the MIC was 0.05 mg/L in the series on K. pneumoniae 13; 0.78 mg/L in the series on E. coli P-51209; 3.13 mg/L in the series on M. lacunata P-7102; 0.025 mg/L in the series with S. aureus 50774; 0.0125 mg/L in the series on S. epidermidis 8.
For the molecule `CCn1cc(C(=O)O)c(=O)c2cc(F)c(N3CCC(CN)C3)nc21.Cl` (stereo not drawn) [Compound A, 7-(3-aminomethyl-1-pyrrolidinyl)-1-ethyl-6-fluoro-1,4-dihydro-4-oxo-1,8-naphthyridine-3-carboxylic acid hydrochloride, reference compound], the ED50 in [1] is 2.79 mg/kg; in series [2], 3.75 mg/kg. Besides, the MIC was 0.39 mg/L in the series with E. coli P-5101; 0.78 mg/L in the series on P. rettgeri IFO 3850; 6.25 mg/L in the series with E. coli P-51208; 0.39 mg/L in the series with S. pyogenes A65; 0.39 mg/L in the series with S. aureus 80; 0.1 mg/L in the series on S. aureus Smith. Besides, the MIC in the series with K. pneumoniae 13 is 0.39 mg/L; with E. coli P-51209, 12.5 mg/L; in the series with M. lacunata P-7102, 50 mg/L; in the series on S. aureus 50774, 0.2 mg/L; in the series on S. epidermidis 8, 0.1 mg/L.
On to `CCNC[C@@H]1CN(c2nc3c(cc2F)c(=O)c(C(=O)O)cn3C2CC2)C[C@H]1F.Cl` (relative stereo) [4-trans.HCl, 1-cyclopropyl-7-(trans-3-ethylaminomethyl-4-fluoro-1-pyrrolidinyl)-6-fluoro-1,4-dihydro-4-oxo-1,8-naphthyridine-3-carboxylic acid hydrochloride], for which the ED50 in series [2] is 0.267 mg/kg. Further, the MIC in the series with E. coli P-5101 is 0.0125 mg/L; in the series with P. rettgeri IFO 3850, 0.05 mg/L; in the series with E. coli P-51208 it was 0.78 mg/L; in the series on S. pyogenes A65 it was 0.05 mg/L; in the series with S. aureus 80, 0.0125 mg/L; in the series on S. aureus Smith it was 0.025 mg/L. The MIC is 0.05 mg/L in the series with K. pneumoniae 13; 0.78 mg/L with E. coli P-51209; 3.13 mg/L with M. lacunata P-7102; 0.025 mg/L in the series on S. aureus 50774; 0.0125 mg/L in the series with S. epidermidis 8.
Molecule `NC[C@@H]1CN(c2nc3c(cc2F)c(=O)c(C(=O)O)cn3C2CC2)C[C@@H]1Cl` (relative stereo) [Compound No. 2-cis, 7-(cis-3-aminomethyl-4-chloro-1-pyrrolidinyl)-1-cyclopropyl-6-fluoro-1,4-dihydro-4-oxo-1,8-naphthyridine-3-carboxylic acid] registered a solubility in the series “Solubility in water” of 0.713 mg/mL (≈ 1870 µM).
